Measured values: patent US6756362B2, “Methods and compositions based on inhibition of cell invasion and fibrosis by anionic polymers” (priority 1991, dated 2004)

Assays:
Sulfur content = format: physicochemical; details: by weight
[1] = tested on: rat meningeal fibroblasts (RMF); assay: Colorimetric cell adhesion assay, RMF; format: cell-based; details: RMF on PLL; 4 hr incubation; FIG. 7
Description: Primary Cell Cultures. Primary cultures of rat meningeal fibroblasts (RMF) were obtained from P-3 rat pups. The tissue was removed from the animals and transferred to Leibovitz's L-15 with L-glutamine medium. The tissue was then cut into small pieces with a scalpel blade, enzymatically dissociated with 0.25% trypsin in Ca^2+/Mg^2+ free Hank's balanced salt solution (CMF-HBSS, Gibco Laboratories) for 20 minutes at 37° C., and mechanically triturated. The cells were rinsed with DMEM plus 10% FCS, concentrated by centrifugation and subsequently diluted in DMEM with 10% FCS for plating at 5.0×10^6 cells per 75 cm^2 flask. Adult rat sciatic nerve fibroblasts (RSF) were obtained by explantation of 1 mm sections of adult rat sciatic nerve.
(§1) Microtiter plates were precoated with poly-L-lysine and blocked with 1% BSA in DMEM for 20 min prior to addition of cells. The cells were plated on the precoated 96-well plates and test compounds were added to the culture medium. Following 4-24 hr incubation at 36° C., 5% C02, in a humidified incubator, the tetrazolium salt MTT (3-(4,5-dimethylthazol-2-yl)-2,5-diphenyl tetrazolium bromide) was added. The cultures were incubated for 2 hr to allow mitochondrial succinate dehydrogenase, found in viable cells, to […] the MTT to its formazan blue reaction product. The media was aspirated and the wells were rinsed to remove all detached cells. The formazan blue reaction product in attached cells was solubilized with 0.08 N HCl in isopropanol, and the plates were read in a microtiter plate reader (Dynatech MR4000) at 570 nm with a 630 nm reference filter. The resulting optical density readings are directly related to the number of viable cells in the well (Mosmann, T., 1983, J. Immunol. Methods 65:55-63). The samples were run in 3-6 replicates per point and the SD was less than 5%.
(§2) The adhesion of fibroblasts to PLL-coated microtiter plates in the presence of test compounds in the culture medium was evaluated using an MTT assay as described in Section 8.1.5., supra, and the number of attached cells was expressed as percent of control. The effect of 4 hr incubation in the presence of heparin, pentosan polysulfate, dextran sulfate, and dextran on adhesion of rat meningeal fibroplasts (RMF) and 3T3 cells to PLL is shown in FIG. 7.

3T3 cells = assay: Colorimetric cell adhesion assay, 3T3; format: cell-based, mouse; details: 3T3 cells on PLL; 4 hr incubation; FIG. 7
Description: (§3) Cell lines. Murine 3T3 fibroblast (NIH), rat C6 glioma (Paganetti et al., 1988, J. Cell Biol. 107:2281) and MCG-28 young immortalized mouse astrocyte (a murine neonatal astrocyte line immortalized with SV-40) were grown in medium composed of Dulbecco's modified Eagle medium (DMEM), 10% fetal calf serum (Gibco Laboratories), and penicillin G/streptomycin (100 units/ml, 100 μg/ml respectively, Gibco Laboratories). For the stripe assay, confluent plates were disaggregated with 0.05% trypsin, 0.53 mM EDTA (Gibco Laboratories) and seeded at 200,000 cells/ml (3 ml/plate). For the cell adhesion assays, confluent cultures were disaggregated with 0.03% EDTA and plated in a 96-well microtiter plate at 20,000-100,000 cells per well. PC12 cells, a pheochromocytoma cell line (Green L. A. & Tischler A. S., 1976, Proc. Natl. Acad. Sci. U.S.A. 73:2424), were grown in medium containing Roswell Park Memorial Institute (RPMI) medium 1640 (Gibco Laboratories), 10% horse serum, 5% fetal calf serum (FCS), and penicillin G/streptomycin (100 units/ml, 100 μg/ml respectively, Gibco Laboratories). The cells were disaggregated with 0.03% EDTA and plated in a 96-well microtiter plate at 3,000 cells per well.
as §1, §2

[2] = tested on: epidural fibrosis at laminectomy site, Lewis inbred rats; assay: Epidural fibrosis after lumbar laminectomy in rats, gross evaluation; format: in vivo, rat; parameters: TOTAL SCORE / TOTAL SCORE 2 WEEKS: scale not given here; details: for inhibition of scar formation (in words): 20 mg/ml, versus buffer control; for TOTAL SCORE: Table 5, agent 20 mg/ml
Description: Epidural fibrosis was investigated after lumbar laminectomy in rats. In this model, a laminectomy was performed at the lumbar 3 and 5 vertebrae and then the test agent was applied to the laminectomy site. Subsequently, the laminectomy sites were examined for fibrosis by gross dissection or by histological analysis.
Laminectomies (described below) were performed at lumbar vertebrae L3 and L5 to provide auto-controls within each animal. Segments of GELFOAM® (Upjohn) soaked with experimental or control solutions were inserted into the laminectomy site. The soared GELFOAM® fragments were prepared and coded 24 hours beforehand. The GELFOAM® segments were soaked in solutions of dextran sulfate in calcium/magnesium-free phosphate buffered saline (CMF-PBS), dextran in CMF-PBS, or CMF-PBS alone. In some laminectomy sites, the GELFOAM® fragments were omitted, in order to serve as sham operations. Subsequently, the evaluation by gross dissection was done without knowledge of which solutions had been placed in which laminectomy site. Thus, the experiments were double-blind.
Lewis inbred rats were anesthetized with 4% chloral hydrate (34 mg/100 g body weight). The dorsal skin was incised and the paraspinal muscles were separated from the spinous processes of lumbar vertebrae L2 through L6. The spinous processes of L3 and L5 were removed with a rongeurs; then the vertebral lamina was removed with a micro-rongeurs creating a rectangular laminectomy defect 4×2 mm in size. After bleeding was stopped, a GELFOAM® segment was placed into the laminectomy site according to a randomized protocol. The overlying paraspinal muscles were closed over the site by suturing the superficial fascia together with resorbable 6-0 PDS II (Ethicon). The skin incision was closed with wound clips.
The animals were kept for two weeks prior to gross evaluation. At that time, the rats were anesthetized with 4% chloral hydrate and the wound was reopened by incising, the skin and separating the paraspinal muscles. The quality and quantity of scar tissue above the laminectomy site, the appearance of the GELFOAM® and the extent of new bone growth was evaluated by visual and tactile observation during sharp dissection. After the gross evaluation was complete, the rats were euthanized by anesthesia overdose.
All gross evaluations were made prior to breaking the treatment code, but the observations have been tabulated and presented below according to treatment group.

PC12 cells = assay: PC12 neurite outgrowth assay; format: cell-based; details: NGF-primed PC12 cells; scored 2 days later
Description: as §3
PC12 cells were primed with 20 ng/ml NGF for 8 days, collected with 0.03% EDTA in PBS and plated in precoated 96-well microtiter plates at 3,000 cells/well. The microtiter plates were precoated with poly-L-lysine and blocked with adhesion medium (1% BSA in RPMI) for 20 min prior to addition of cells. The cells were grown in adhesion medium supplemented with 20 ng/ml NGF. The cells were allowed to attach for 2 hr prior to the addition of the test compounds (Akeson and Warren, 1986, Exp. Cell Res. 162:347-362).
PC-12 cells primed with NGF were plated in 96-well plates. Test solutions were added to the wells and the cells were scored 2 days later as (+) if neurites of at least two cell bodies diameter in length were present on the majority of the cells, and (−) if no or only short processes were present. […] The compounds tested included GAGs (heparin, dermatan sulfate, chondroitin sulfate A, keratan sulfate and hyaluronic acid), sulfated carbohydrate polymers (dextran sulfate and pentosan polysulfate), and another polyanionic polymer (e.g., alginic acid).

Substance	Sulfur Content (Sulfur content)	number of attached cells compared to untreated controls [1]	number of attached cells compared to untreated controls (3T3 cells)	inhibition of scar formation (in words) [2]	TOTAL SCORE [2]	IC100, minimum concentration causing 100% inhibition of neurite outgrowth (PC12 cells) [g/mL]
keratan sulfate	6.4%					
pentosan polysulfate [reference compound]	16.5%	decreased	decreased	partial inhibition	5.0 ± 1.0	3.9e-07
dermatan sulfate [Dermatan sulfate 90%]	6.0%					1.5e-05
hyaluronic acid [reference compound]	0.6-0.8%			no ability to inhibit scar formation	9.3 ± 0.5	0.0002
chondroitin sulfate A	5.6%					0.0005
alginate	0%			marginal improvement	7.3 ± 1.9	3.1e-06
